Data as given in ChEMBL document CHEMBL5465560, “Selectivity Literature for EUbOPEN Chemogenomic Library” (2024).

Assays:
[1] = molecular target: SWI/SNF-related matrix-associated actin-dependent regulator of chromatin subfamily A member 4 (Homo sapiens) (UniProt P51532); assay: Selectivity interaction (Human bromodomain panel (DSF assay)) EUB0000233b SMARCA4
[2] = test system: Tyrosine-protein kinase ABL1 (Homo sapiens), P00519 [Q252H]; assay: Selectivity interaction (KinomeScan (DiscoverX)) EUB0000045b ABL1; settings: at 1 µM
[3] = molecular target: T1, Serine/threonine-protein kinase ULK1 (Homo sapiens) (UniProt O75385); assay: Selectivity interaction (KinomeScan (DiscoverX)) EUB0000695a ULK1; settings: at 100 nM
T1 sequence (whole entry): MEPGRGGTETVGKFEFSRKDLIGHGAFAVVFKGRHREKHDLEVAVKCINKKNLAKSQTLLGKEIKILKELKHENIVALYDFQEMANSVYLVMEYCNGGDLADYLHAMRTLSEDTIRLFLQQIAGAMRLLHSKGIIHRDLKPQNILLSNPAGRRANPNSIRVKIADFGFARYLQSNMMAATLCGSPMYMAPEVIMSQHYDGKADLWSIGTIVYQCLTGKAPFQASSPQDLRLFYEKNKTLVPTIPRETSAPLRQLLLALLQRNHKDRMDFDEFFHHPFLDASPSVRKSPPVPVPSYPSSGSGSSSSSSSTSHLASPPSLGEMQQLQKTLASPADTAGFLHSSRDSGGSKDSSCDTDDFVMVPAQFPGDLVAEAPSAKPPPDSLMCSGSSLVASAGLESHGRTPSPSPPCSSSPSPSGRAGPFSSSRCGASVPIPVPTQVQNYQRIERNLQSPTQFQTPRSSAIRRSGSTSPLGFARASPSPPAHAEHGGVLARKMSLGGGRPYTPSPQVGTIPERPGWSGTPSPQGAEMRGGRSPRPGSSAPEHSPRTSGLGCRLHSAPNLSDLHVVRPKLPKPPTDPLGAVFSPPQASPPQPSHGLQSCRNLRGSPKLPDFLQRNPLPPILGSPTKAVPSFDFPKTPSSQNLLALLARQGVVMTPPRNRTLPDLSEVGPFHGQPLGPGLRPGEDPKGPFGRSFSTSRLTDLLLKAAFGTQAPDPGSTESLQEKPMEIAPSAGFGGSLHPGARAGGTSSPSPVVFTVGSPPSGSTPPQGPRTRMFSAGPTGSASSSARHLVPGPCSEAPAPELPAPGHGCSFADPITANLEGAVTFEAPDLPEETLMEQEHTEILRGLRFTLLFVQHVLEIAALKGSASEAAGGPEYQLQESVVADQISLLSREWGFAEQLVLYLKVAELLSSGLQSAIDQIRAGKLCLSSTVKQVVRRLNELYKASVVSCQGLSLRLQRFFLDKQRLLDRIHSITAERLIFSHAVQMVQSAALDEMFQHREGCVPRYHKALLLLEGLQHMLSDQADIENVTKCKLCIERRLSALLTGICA

[4] = molecular target: Serine/threonine-protein kinase 24 (Homo sapiens) (UniProt Q9Y6E0); assay: Selectivity interaction (Kinase panel (Z-LYTE Assay)) EUB0001632a STK24; settings: at 10 µM
Chain of Serine/threonine-protein kinase 24 (Homo sapiens) (Q9Y6E0 whole entry, looked up): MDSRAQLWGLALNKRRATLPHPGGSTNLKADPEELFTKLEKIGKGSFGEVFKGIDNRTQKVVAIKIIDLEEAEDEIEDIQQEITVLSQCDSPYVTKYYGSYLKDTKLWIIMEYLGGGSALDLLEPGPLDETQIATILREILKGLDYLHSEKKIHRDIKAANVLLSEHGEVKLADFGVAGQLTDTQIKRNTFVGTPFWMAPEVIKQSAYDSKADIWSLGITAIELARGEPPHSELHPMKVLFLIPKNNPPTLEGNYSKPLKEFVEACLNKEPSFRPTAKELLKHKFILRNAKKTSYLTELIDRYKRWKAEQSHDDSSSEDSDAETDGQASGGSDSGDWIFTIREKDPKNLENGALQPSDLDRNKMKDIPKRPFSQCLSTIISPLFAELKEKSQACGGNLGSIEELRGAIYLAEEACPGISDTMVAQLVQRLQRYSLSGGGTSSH

[5] = molecular target: Tyrosine-protein kinase CSK (Homo sapiens) (UniProt P41240); assay: Selectivity interaction (KinomeScan (DiscoverX)) EUB0000666a CSK; settings: at 10 µM
Chain of Tyrosine-protein kinase CSK (Homo sapiens) (P41240 2-450 limits assumed): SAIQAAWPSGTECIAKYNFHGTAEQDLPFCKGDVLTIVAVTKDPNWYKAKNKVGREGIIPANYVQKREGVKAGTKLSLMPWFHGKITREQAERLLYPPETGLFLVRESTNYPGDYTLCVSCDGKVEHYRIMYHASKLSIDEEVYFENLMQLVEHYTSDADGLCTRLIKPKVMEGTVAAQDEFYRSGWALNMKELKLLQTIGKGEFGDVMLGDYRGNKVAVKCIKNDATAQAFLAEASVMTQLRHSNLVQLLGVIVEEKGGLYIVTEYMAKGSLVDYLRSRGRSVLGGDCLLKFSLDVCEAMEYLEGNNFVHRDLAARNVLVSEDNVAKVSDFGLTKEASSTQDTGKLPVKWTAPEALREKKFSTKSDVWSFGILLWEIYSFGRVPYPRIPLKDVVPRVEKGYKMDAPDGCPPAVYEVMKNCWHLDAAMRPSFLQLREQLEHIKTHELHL

[6] = molecular target: T2, Phosphatidylinositol 3-kinase C2 domain-containing subunit gamma (Homo sapiens) (UniProt O75747); assay: Selectivity interaction (KinomeScan (DiscoverX)) EUB0000666a PIK3C2G; settings: at 10 µM
T2 sequence (whole entry): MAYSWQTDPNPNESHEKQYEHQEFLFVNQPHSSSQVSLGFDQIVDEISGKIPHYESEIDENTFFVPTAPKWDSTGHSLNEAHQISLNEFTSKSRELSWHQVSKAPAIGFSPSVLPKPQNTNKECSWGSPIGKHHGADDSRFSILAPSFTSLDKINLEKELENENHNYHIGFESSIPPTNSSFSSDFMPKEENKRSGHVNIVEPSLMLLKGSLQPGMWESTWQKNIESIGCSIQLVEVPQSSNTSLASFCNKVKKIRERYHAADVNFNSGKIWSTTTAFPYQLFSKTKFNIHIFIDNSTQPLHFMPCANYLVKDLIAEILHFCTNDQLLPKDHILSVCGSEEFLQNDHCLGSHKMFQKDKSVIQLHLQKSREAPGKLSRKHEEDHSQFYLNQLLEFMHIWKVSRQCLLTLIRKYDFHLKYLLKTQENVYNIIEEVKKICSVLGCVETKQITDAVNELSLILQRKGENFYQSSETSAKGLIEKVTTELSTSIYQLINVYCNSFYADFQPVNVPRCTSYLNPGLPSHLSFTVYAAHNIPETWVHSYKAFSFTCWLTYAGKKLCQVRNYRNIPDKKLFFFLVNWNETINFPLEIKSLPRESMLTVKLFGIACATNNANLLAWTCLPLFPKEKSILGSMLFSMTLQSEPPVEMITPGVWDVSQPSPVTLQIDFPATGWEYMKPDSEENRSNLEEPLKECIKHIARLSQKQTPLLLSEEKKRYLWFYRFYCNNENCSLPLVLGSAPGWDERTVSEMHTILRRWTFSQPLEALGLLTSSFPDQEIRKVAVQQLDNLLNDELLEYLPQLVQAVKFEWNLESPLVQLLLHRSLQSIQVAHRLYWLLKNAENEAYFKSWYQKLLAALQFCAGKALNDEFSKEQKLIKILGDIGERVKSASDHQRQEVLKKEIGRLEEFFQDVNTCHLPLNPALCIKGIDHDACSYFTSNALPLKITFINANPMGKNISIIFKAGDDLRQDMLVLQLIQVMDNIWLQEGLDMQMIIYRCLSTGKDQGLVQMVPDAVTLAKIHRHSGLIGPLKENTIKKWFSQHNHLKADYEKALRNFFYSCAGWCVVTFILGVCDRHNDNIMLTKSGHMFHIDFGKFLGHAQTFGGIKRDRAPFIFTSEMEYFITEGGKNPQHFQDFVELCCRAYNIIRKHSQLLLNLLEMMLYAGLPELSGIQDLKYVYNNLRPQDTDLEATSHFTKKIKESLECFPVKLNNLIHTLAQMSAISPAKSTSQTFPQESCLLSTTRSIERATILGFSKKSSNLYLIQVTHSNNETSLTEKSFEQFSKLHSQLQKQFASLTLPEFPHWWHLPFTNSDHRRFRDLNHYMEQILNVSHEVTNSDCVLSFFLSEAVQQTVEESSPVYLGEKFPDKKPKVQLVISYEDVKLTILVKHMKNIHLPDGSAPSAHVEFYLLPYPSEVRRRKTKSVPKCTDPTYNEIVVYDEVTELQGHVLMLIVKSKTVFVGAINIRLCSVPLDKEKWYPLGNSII

Chain of SWI/SNF-related matrix-associated actin-dependent regulator of chromatin subfamily A member 4 (Homo sapiens) (P51532 whole entry): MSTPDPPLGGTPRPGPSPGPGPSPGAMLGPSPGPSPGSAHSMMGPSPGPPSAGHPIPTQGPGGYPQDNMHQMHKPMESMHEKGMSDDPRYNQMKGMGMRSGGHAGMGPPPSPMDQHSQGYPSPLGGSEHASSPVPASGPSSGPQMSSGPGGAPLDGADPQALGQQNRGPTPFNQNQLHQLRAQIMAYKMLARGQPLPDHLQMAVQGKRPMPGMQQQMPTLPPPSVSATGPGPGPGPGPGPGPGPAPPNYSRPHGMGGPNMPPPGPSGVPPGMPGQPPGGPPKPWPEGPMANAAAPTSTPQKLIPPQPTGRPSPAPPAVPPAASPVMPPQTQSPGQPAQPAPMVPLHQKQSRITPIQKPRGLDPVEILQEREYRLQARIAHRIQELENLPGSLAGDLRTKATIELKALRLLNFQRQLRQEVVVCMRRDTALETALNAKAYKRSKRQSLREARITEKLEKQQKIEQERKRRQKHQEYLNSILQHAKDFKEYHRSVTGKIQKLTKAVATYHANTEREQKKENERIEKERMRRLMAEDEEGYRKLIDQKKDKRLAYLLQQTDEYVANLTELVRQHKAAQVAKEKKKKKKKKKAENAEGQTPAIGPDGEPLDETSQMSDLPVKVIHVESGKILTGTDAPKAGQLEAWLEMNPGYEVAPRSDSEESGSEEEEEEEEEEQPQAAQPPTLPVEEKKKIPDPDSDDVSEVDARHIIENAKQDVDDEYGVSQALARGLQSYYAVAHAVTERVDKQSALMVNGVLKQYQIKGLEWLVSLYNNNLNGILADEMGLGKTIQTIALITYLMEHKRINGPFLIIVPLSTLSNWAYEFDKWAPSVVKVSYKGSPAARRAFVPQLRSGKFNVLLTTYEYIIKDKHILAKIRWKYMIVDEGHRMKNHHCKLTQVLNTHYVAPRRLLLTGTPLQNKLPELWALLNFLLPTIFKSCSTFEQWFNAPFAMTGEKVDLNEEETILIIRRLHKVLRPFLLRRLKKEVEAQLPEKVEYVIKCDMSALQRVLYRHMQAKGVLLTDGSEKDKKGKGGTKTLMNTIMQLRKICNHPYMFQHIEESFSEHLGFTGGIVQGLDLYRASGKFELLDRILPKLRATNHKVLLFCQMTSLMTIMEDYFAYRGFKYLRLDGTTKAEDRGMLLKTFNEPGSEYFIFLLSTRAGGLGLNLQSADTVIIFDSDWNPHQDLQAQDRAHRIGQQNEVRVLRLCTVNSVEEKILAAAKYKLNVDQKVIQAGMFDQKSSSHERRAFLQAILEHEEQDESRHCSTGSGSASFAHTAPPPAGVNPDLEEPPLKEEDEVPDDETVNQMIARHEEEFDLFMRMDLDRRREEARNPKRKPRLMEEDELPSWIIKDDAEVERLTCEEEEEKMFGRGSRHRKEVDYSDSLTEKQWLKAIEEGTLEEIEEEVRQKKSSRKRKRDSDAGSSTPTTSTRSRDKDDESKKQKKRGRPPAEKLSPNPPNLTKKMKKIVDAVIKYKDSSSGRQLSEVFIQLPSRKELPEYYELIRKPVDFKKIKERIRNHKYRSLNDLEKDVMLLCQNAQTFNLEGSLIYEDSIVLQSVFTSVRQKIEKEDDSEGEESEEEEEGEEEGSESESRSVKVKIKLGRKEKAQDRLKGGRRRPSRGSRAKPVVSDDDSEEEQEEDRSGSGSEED

`CN(C)CCCOc1ccc(-c2cc(NCCCn3cccn3)nc(S(C)(=O)=O)n2)cc1` was tested, and the dTM [1] was under 2 K.

For `C=CC(=O)Nc1cc(-n2c(=O)ccc3cnc4ccc(-c5ccc(NS(C)(=O)=O)cc5)cc4c32)ccc1C`, the % of control [2] was 95%.

Work on `Cc1cc(F)c(C(=O)Nc2cccc(-c3nncn3C(C)C)n2)cc1-n1cnc(C2CC2)c1` yielded a % of control [3] of 100%.

`Cn1cc(-n2cnc3c(NCc4nc5cc(Cl)c(Cl)cc5[nH]4)nc(N4CCOCC4)nc32)cn1` showed a % of control [4] of 1.16%.

In the case of `O=C(NOC[C@H](O)CO)c1ccc(F)c(F)c1Nc1ccc(I)cc1F`, the % of control [5] is reported as 100% and the % of control [6] is reported as 48%.
